Measured values as given in patent EP2357172B1, “Process for the preparation of pimozide” (Institut Univ. de Ciència i Tecnologia, S.A., priority 2006, dated 2008).

Legend:
rats [1] = details: cited from earlier work
[2] = cited from earlier work
rats [3] = assay: Oral lethal dose (LD50) in rats, from safety data sheets; assay type: in vivo; details: glycerol formal compared with MIBK
From the text: The data for MIBK were obtained from the International Chemical Safety Card published by "Instituto Nacional de Seguridad e Higiene en el Trabajo" (National Institute for Occupational Safety and Hygiene). The data for glycerol formal were obtained from the most recent manufacturer's standard safety data sheet.

Molecule | LD50(oral-rats, g/kg) (rats [1]) [g/kg] | Solubility in H2O (g/L) [2] | lethal dose in rats (ingestion) relative to MIBK (rats [3])
CC(=O)CC(C)C [MIBK, methylisobutylketone] | 2.1 | – | –
GLYCEROL FORMAL | 10 | Miscible in all proportions | five times higher
